Reference: ChEMBL document CHEMBL4507261, “Data for DCP probe A-192621” (2021)

Columns and labels:
[1] = target: Wee1-like protein kinase 2 (Homo sapiens) (UniProt P0C1S8); conditions: Compound concentration 1000.0 nM
[2] = target: Angiopoietin-1 receptor (Homo sapiens) (UniProt Q02763); conditions: Compound concentration 1000.0 nM
[3] = target: cGMP-dependent protein kinase 1 (Homo sapiens) (UniProt Q13976); conditions: Compound concentration 1000.0 nM
[4] = target: Calcium/calmodulin-dependent protein kinase type 1B (Homo sapiens) (UniProt Q6P2M8); conditions: Compound concentration 1000.0 nM
[5] = target: Mitogen-activated protein kinase 1 (Homo sapiens) (UniProt P28482); conditions: Compound concentration 1000.0 nM
[6] = target: 1-phosphatidylinositol 3-phosphate 5-kinase (Homo sapiens) (UniProt Q9Y2I7); conditions: Compound concentration 1000.0 nM
[7] = target: Receptor-type tyrosine-protein kinase FLT3 (Homo sapiens) (UniProt P36888); conditions: Compound concentration 1000.0 nM
Chain of Receptor-type tyrosine-protein kinase FLT3 (Homo sapiens) (P36888 whole entry): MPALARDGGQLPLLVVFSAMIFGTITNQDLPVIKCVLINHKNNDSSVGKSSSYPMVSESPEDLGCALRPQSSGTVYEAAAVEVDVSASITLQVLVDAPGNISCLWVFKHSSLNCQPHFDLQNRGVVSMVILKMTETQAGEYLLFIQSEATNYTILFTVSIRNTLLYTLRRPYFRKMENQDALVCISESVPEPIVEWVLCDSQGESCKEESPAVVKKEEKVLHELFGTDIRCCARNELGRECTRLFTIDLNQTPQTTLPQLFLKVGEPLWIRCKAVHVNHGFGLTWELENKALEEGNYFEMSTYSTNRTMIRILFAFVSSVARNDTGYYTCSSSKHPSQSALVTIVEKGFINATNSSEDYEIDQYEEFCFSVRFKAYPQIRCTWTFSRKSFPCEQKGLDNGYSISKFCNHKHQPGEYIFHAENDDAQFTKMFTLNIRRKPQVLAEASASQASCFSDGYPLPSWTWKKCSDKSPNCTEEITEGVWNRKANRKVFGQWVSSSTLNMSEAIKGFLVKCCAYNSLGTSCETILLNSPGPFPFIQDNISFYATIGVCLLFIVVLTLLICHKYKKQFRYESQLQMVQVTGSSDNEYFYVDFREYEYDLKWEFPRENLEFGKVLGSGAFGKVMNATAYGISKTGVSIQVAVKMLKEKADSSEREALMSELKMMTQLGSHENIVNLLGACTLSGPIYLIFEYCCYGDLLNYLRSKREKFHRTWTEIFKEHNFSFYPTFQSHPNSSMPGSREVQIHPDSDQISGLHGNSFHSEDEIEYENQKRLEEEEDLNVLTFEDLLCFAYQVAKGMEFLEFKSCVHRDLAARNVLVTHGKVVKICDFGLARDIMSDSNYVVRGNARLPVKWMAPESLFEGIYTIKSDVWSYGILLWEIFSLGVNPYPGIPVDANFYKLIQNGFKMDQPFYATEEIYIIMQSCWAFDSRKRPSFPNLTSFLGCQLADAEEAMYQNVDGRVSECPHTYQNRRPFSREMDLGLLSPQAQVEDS

[8] = target: Calcium/calmodulin-dependent protein kinase type 1G (Homo sapiens) (UniProt Q96NX5); conditions: Compound concentration 1000.0 nM
[9] = target: SRSF protein kinase 3 (Homo sapiens) (UniProt Q9UPE1); conditions: Compound concentration 1000.0 nM
[10] = target: Mitogen-activated protein kinase kinase kinase 6 (Homo sapiens) (UniProt O95382); conditions: Compound concentration 1000.0 nM
Chain of Mitogen-activated protein kinase kinase kinase 6 (Homo sapiens) (O95382 whole entry): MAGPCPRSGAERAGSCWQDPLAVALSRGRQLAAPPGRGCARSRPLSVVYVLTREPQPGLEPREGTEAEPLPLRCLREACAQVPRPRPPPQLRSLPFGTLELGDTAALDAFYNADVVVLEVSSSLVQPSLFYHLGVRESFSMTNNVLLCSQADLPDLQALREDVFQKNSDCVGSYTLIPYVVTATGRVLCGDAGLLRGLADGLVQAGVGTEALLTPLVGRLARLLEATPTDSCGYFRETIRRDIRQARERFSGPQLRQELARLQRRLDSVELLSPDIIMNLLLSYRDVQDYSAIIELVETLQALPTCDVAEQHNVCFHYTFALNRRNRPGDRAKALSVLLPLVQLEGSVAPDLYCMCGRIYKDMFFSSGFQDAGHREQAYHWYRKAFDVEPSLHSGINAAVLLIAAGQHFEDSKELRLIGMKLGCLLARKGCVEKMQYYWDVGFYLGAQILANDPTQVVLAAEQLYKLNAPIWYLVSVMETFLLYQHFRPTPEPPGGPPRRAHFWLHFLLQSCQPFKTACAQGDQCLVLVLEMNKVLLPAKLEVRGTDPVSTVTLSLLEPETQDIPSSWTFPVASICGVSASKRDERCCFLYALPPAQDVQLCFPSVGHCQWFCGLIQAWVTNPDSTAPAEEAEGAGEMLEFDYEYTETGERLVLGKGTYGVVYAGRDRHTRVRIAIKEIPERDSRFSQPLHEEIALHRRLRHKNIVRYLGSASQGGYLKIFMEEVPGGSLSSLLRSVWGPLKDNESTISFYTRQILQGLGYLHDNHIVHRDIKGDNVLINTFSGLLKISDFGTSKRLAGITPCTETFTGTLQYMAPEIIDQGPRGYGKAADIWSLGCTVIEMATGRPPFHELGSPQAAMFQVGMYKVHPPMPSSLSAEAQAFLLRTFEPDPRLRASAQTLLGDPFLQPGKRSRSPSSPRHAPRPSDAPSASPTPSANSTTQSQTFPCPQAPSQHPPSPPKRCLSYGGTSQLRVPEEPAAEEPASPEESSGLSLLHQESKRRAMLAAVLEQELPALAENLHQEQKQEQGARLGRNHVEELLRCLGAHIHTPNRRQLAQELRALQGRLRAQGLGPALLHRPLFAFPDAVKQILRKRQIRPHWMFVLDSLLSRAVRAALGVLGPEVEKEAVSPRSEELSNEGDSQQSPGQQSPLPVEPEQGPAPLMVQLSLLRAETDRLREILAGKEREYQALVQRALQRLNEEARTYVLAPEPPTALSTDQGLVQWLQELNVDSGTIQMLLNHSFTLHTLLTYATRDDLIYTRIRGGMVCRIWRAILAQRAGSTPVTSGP

[11] = target: Receptor-type tyrosine-protein kinase FLT3 (Homo sapiens) (UniProt P36888); conditions: Compound concentration 1000.0 nM; remark: listed apart in the source
[12] = target: GABA-A receptor; anion channel (Rattus norvegicus) (UniProt O09028+P15431+P18506+P18508+P19969+P20236+P23574+P23576+P28471+P28473+P30191+P62813+P63079+P63138+Q91ZM7+Q9ES14); test: BZD (central) Eurofins-Cerep binding assay; assay type: protein-complex assay; set-up: ligand concentration 0.4 nM; conditions: filed as agonist, Compound concentration 10.0 uM
[13] = target: SRSF protein kinase 2 (Homo sapiens) (UniProt P78362); conditions: Compound concentration 1000.0 nM
[14] = target: Cyclin-dependent kinase 4 (Homo sapiens) (UniProt P11802); conditions: Compound concentration 1000.0 nM
[15] = target: Testis-specific serine/threonine-protein kinase 1 (Homo sapiens) (UniProt Q9BXA7); conditions: Compound concentration 1000.0 nM
[16] = test system: Tyrosine-protein kinase ABL1 (Homo sapiens), P00519 [F317L]; conditions: Compound concentration 1000.0 nM
[17] = target: Mitogen-activated protein kinase kinase kinase kinase 1 (Homo sapiens) (UniProt Q92918); conditions: Compound concentration 1000.0 nM
[18] = target: Dual specificity mitogen-activated protein kinase kinase 2 (Homo sapiens) (UniProt P36507); conditions: Compound concentration 1000.0 nM
[19] = target: Transient receptor potential cation channel subfamily M member 6 (Homo sapiens) (UniProt Q9BX84); conditions: Compound concentration 1000.0 nM
[20] = target: Serine/threonine-protein kinase 36 (Homo sapiens) (UniProt Q9NRP7); conditions: Compound concentration 1000.0 nM
[21] = target: Glutamate NMDA receptor (Rattus norvegicus) (UniProt P35439+Q00959+Q00960+Q00961+Q62645+Q8VHN2+Q9R1M7); test: NMDA Eurofins-Cerep binding assay; assay type: protein-complex assay; set-up: ligand concentration 5 nM; conditions: filed as antagonist, Compound concentration 10.0 uM
[22] = target: Calcium-dependent protein kinase 1 (Plasmodium falciparum) (UniProt P62344); conditions: Compound concentration 1000.0 nM
[23] = target: Serine/threonine-protein kinase D1 (Homo sapiens) (UniProt Q15139); conditions: Compound concentration 1000.0 nM
Chain of Serine/threonine-protein kinase D1 (Homo sapiens) (Q15139 whole entry): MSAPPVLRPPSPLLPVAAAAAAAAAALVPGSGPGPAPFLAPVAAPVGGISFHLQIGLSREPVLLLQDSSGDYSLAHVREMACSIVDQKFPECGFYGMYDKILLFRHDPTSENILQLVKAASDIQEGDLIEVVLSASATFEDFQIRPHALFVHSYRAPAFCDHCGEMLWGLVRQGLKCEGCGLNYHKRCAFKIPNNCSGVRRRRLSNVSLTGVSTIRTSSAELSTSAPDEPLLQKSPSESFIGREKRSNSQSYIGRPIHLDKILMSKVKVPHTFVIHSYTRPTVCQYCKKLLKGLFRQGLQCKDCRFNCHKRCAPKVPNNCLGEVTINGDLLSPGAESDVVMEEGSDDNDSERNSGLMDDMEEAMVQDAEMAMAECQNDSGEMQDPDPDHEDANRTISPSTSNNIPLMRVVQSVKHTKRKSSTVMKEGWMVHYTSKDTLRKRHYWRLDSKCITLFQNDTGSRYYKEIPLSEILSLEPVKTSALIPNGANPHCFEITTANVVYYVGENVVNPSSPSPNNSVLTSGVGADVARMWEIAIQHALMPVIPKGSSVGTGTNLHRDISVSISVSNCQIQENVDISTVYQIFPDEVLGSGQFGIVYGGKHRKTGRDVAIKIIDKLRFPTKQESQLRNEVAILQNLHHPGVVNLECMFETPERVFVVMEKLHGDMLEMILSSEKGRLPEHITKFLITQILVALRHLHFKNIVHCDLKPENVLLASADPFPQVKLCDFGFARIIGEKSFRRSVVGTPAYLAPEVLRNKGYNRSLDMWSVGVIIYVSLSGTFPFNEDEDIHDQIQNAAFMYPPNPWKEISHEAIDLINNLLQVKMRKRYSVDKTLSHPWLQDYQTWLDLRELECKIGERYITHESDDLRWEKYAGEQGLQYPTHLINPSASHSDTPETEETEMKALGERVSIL

[24] = target: Tyrosine-protein kinase Blk (Homo sapiens) (UniProt P51451); conditions: Compound concentration 1000.0 nM
[25] = target: G protein-coupled receptor kinase 4 (Homo sapiens) (UniProt P32298); conditions: Compound concentration 1000.0 nM
[26] = target: Substance-K receptor (Homo sapiens) (UniProt P21452); test: NK2 (h) Eurofins-Cerep binding assay; set-up: ligand concentration 0.1 nM; conditions: filed as agonist, Compound concentration 10.0 uM
Chain of Substance-K receptor (Homo sapiens) (P21452 whole entry): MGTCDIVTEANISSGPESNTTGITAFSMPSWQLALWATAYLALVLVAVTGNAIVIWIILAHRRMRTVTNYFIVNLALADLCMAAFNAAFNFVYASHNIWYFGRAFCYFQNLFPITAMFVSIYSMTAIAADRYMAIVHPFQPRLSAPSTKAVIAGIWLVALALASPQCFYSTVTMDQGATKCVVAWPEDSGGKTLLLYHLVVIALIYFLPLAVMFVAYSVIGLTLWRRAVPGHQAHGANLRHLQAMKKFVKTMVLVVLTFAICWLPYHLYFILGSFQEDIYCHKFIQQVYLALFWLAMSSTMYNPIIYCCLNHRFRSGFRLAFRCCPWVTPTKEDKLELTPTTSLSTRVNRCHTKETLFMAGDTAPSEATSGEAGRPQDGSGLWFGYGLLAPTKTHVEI

[27] = target: GABA-A receptor; alpha-1/beta-2/gamma-2 (Homo sapiens) (UniProt P14867+P47870+P18507); test: GABAA1 (h) (alpha1,beta2,gamma2) Eurofins-Cerep binding assay; assay type: protein-complex assay; set-up: ligand concentration 15 nM; conditions: filed as agonist, Compound concentration 10.0 uM
[28] = target: T1, 5-hydroxytryptamine receptor 3A (Homo sapiens) (UniProt P46098); test: 5-HT3 (h) Eurofins-Cerep binding assay; set-up: ligand concentration 0.5 nM; conditions: filed as antagonist, Compound concentration 10.0 uM
T1 sequence (whole entry): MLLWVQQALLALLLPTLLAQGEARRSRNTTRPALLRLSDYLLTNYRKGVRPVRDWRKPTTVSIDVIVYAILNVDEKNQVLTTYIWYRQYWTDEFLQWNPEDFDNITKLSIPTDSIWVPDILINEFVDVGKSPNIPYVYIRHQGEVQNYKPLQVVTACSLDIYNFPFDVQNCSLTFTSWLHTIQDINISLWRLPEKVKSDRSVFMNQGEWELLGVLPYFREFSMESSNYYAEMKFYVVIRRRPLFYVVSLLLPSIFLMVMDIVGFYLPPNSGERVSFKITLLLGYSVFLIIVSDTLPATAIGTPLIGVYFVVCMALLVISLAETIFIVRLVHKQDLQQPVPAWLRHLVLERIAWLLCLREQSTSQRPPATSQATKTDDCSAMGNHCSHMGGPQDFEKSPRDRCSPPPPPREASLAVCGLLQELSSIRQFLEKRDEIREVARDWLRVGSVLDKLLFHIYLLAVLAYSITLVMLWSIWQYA

[29] = target: Serine/threonine-protein kinase BRSK2 (Homo sapiens) (UniProt Q8IWQ3); conditions: Compound concentration 1000.0 nM
[30] = test system: Receptor-type tyrosine-protein kinase FLT3 (Homo sapiens), P36888 [UNDEFINED MUTATION]; conditions: Compound concentration 1000.0 nM
[31] = target: Bone morphogenetic protein receptor type-2 (Homo sapiens) (UniProt Q13873); conditions: Compound concentration 1000.0 nM
Chain of Bone morphogenetic protein receptor type-2 (Homo sapiens) (Q13873 whole entry): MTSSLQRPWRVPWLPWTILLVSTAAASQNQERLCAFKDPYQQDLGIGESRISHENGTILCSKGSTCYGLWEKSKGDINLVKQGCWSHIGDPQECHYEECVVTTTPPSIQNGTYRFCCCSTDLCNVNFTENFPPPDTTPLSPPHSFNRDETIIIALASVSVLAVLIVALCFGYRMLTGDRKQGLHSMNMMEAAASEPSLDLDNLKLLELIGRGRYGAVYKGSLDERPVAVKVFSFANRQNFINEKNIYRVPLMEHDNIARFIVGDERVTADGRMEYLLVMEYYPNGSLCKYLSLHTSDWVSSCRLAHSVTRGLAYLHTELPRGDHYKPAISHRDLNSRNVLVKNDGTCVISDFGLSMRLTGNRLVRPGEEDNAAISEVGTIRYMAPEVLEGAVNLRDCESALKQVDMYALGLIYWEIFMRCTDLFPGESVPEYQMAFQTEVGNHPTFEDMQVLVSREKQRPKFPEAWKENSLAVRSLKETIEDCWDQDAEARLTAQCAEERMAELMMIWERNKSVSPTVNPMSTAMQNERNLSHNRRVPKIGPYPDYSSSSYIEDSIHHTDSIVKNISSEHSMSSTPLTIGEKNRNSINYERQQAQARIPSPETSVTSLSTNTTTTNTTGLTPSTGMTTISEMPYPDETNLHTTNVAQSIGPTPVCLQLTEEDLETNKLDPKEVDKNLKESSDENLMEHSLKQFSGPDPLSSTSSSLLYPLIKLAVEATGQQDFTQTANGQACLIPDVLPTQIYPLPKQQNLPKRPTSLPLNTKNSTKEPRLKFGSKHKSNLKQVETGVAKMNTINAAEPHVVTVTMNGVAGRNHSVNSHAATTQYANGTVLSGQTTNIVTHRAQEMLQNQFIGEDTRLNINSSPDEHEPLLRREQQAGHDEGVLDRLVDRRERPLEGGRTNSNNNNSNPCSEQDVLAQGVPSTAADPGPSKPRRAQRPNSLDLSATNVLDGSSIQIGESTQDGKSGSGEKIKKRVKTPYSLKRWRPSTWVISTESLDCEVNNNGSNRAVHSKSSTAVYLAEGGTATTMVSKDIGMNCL

[32] = target: Muscarinic acetylcholine receptor M1 (Homo sapiens) (UniProt P11229); test: M1 (h) Eurofins-Cerep binding assay; set-up: ligand concentration 2 nM; conditions: filed as antagonist, Compound concentration 10.0 uM
Chain of Muscarinic acetylcholine receptor M1 (Homo sapiens) (P11229 whole entry): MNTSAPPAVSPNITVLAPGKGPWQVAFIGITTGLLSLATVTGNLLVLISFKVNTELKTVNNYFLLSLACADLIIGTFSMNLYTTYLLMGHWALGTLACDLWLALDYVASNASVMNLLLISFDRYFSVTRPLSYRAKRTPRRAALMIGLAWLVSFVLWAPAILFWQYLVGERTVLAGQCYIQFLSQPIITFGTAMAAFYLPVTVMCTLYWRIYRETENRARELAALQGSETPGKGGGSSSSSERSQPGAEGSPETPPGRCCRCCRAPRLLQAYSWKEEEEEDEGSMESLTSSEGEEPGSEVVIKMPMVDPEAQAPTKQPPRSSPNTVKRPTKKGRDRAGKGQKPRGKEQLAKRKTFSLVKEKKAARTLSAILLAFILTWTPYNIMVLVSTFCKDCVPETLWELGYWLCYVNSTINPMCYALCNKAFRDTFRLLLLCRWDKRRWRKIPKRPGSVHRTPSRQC

[33] = target: Tyrosine-protein kinase Srms (Homo sapiens) (UniProt Q9H3Y6); conditions: Compound concentration 1000.0 nM
[34] = target: Mitogen-activated protein kinase kinase kinase kinase 5 (Homo sapiens) (UniProt Q9Y4K4); conditions: Compound concentration 1000.0 nM
[35] = target: Serine/threonine-protein kinase OSR1 (Homo sapiens) (UniProt O95747); conditions: Compound concentration 1000.0 nM
[36] = target: Serine/threonine-protein kinase BRSK1 (Homo sapiens) (UniProt Q8TDC3); conditions: Compound concentration 1000.0 nM

Structure (SMILES) | residual activity [1] [%] | residual activity [2] [%] | residual activity [3] [%] | residual activity [4] [%] | residual activity [5] [%] | residual activity [6] [%] | residual activity [7] [%] | residual activity [8] [%] | residual activity [9] [%] | residual activity [10] [%] | residual activity [11] [%] | % Inhibition of Control Specific Binding (Mean n=2) [12] [%] | residual activity [13] [%] | residual activity [14] [%] | residual activity [15] [%] | residual activity [16] [%] | residual activity [17] [%] | residual activity [18] [%] | residual activity [19] [%] | residual activity [20] [%] | other results
CCCOc1ccc([C@H]2[C@H](C(=O)O)[C@@H](c3ccc4c(c3)OCO4)CN2CC(=O)Nc2c(CC)cccc2CC)cc1 [A-192621] | 85 | 100 | 88 | 77 | 100 | 86 | 87 | 90 | 100 | 65 | 80 | -35.5 | 96 | 89 | 92 | 68 | 92 | 62 | 94 | 98 | % Inhibition of Control Specific Binding (Mean n=2) [21]: 3.3%; residual activity [22]: 88%; residual activity [23]: 94%; residual activity [24]: 88%; residual activity [25]: 100%; % Inhibition of Control Specific Binding (Mean n=2) [26]: 18.3%; % Inhibition of Control Specific Binding (Mean n=2) [27]: -34%; % Inhibition of Control Specific Binding (Mean n=2) [28]: -10.7%; residual activity [29]: 97%; residual activity [30]: 59%; residual activity [31]: 53%; % Inhibition of Control Specific Binding (Mean n=2) [32]: -11.2%; residual activity [33]: 63%; residual activity [34]: 93%; residual activity [35]: 75%; residual activity [36]: 100%
CCCOc1ccc([C@@H]2[C@@H](C(=O)O)[C@H](c3ccc4c(c3)OCO4)CN2CC(=O)Nc2c(CC)cccc2CC)cc1 [A-1806262] | 87 | 86 | 97 | 100 | 100 | 91 | 100 | 89 | 93 | 77 | 71 | -12.9 | 100 | 96 | 100 | 81 | 92 | 89 | 77 | 88 | % Inhibition of Control Specific Binding (Mean n=2) [21]: 6.6%; residual activity [22]: 64%; residual activity [23]: 96%; residual activity [24]: 96%; residual activity [25]: 100%; % Inhibition of Control Specific Binding (Mean n=2) [26]: -3%; % Inhibition of Control Specific Binding (Mean n=2) [27]: -33.6%; % Inhibition of Control Specific Binding (Mean n=2) [28]: -7.1%; residual activity [29]: 100%; residual activity [30]: 61%; residual activity [31]: 69%; % Inhibition of Control Specific Binding (Mean n=2) [32]: 3.7%; residual activity [33]: 90%; residual activity [34]: 95%; residual activity [35]: 79%; residual activity [36]: 100%
